From patent US20220281848A1, “PYRAZOLE-SUBSTITUTED PYRROLIDINONES AS HERBICIDES” (FMC Corporation, priority 2019, published 2022)

Tested on: plants
Assay: Test D pre-emergence, other plants of Tables D1 and D3
Format: in vivo
Conditions: 20 DAA; for damage to plant (100=total damage to plant; 0=no damage to plant), BIDPI / damage to plant (100=total damage to plant; 0=no damage to plant), BRAPL / damage to plant (100=total damage to plant; 0=no damage to plant), CYPES / damage to plant (100=total damage to plant; 0=no damage to plant), EPHHL / damage to plant (100=total damage to plant; 0=no damage to plant), GLXMA / damage to plant (100=total damage to plant; 0=no damage to plant), IPOHE / damage to plant (100=total damage to plant; 0=no damage to plant), SORVU: preemergent; for CHEAL damage rating / GALAP damage rating / KCHSC damage rating / LOLPE damage rating / POAAN damage rating / STEME damage rating / VERPE damage rating: pre-emergence, 100=total damage, 0=no damage
Method in brief: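 Damage was rated visually from 0 (none) to 100 (total), at 20 DAA for pre-emergence and 15 d for post-emergence. Plants grew from safener-treated seed in a glasshouse at 24/18° C. or 20/16° C. day/night, 65% humidity, watered twice daily.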

CN1CC(c2cc(C(F)(F)F)n(C)n2)C(C(=O)Nc2ccc(F)cc2C(C)(F)F)C1=O (racemic) [Compound 26]
damage to plant (100=total damage to plant; 0=no damage to plant), BIDPI (rate 15): 0 | damage to plant (100=total damage to plant; 0=no damage to plant), BIDPI (rate 30): 0 | damage to plant (100=total damage to plant; 0=no damage to plant), BIDPI (rate 60): 0 | damage to plant (100=total damage to plant; 0=no damage to plant), BIDPI (rate 130): 0 | damage to plant (100=total damage to plant; 0=no damage to plant), BIDPI (rate 250): 0 | damage to plant (100=total damage to plant; 0=no damage to plant), BIDPI (rate 500): 0 | damage to plant (100=total damage to plant; 0=no damage to plant), BRAPL (rate 15): 0 | damage to plant (100=total damage to plant; 0=no damage to plant), BRAPL (rate 30): 70 | damage to plant (100=total damage to plant; 0=no damage to plant), BRAPL (rate 60): 80 | damage to plant (100=total damage to plant; 0=no damage to plant), BRAPL (rate 130): 80 | damage to plant (100=total damage to plant; 0=no damage to plant), BRAPL (rate 250): 80 | damage to plant (100=total damage to plant; 0=no damage to plant), BRAPL (rate 500): 80 | CHEAL damage rating (Rates 15): 0 | CHEAL damage rating (Rates 30): 0 | CHEAL damage rating (Rates 60): 0 | CHEAL damage rating (Rates 130): 0 | CHEAL damage rating (Rates 250): 10 | CHEAL damage rating (Rates 500): 10 | damage to plant (100=total damage to plant; 0=no damage to plant), CYPES (rate 15): 0 | damage to plant (100=total damage to plant; 0=no damage to plant), CYPES (rate 30): 0 | damage to plant (100=total damage to plant; 0=no damage to plant), CYPES (rate 60): 0 | damage to plant (100=total damage to plant; 0=no damage to plant), CYPES (rate 130): 0 | damage to plant (100=total damage to plant; 0=no damage to plant), CYPES (rate 250): 0 | damage to plant (100=total damage to plant; 0=no damage to plant), CYPES (rate 500): 10 | damage to plant (100=total damage to plant; 0=no damage to plant), EPHHL (rate 15): 0 | damage to plant (100=total damage to plant; 0=no damage to plant), EPHHL (rate 30): 0 | damage to plant (100=total damage to plant; 0=no damage to plant), EPHHL (rate 60): 0 | damage to plant (100=total damage to plant; 0=no damage to plant), EPHHL (rate 130): 0 | damage to plant (100=total damage to plant; 0=no damage to plant), EPHHL (rate 250): 0 | damage to plant (100=total damage to plant; 0=no damage to plant), EPHHL (rate 500): 0 | GALAP damage rating (Rates 15): 0 | GALAP damage rating (Rates 30): 0 | GALAP damage rating (Rates 60): 0 | GALAP damage rating (Rates 130): 0 | GALAP damage rating (Rates 250): 0 | GALAP damage rating (Rates 500): 20 | damage to plant (100=total damage to plant; 0=no damage to plant), GLXMA (rate 15): 0 | damage to plant (100=total damage to plant; 0=no damage to plant), GLXMA (rate 30): 0 | damage to plant (100=total damage to plant; 0=no damage to plant), GLXMA (rate 60): 0 | damage to plant (100=total damage to plant; 0=no damage to plant), GLXMA (rate 130): 0 | damage to plant (100=total damage to plant; 0=no damage to plant), GLXMA (rate 250): 0 | damage to plant (100=total damage to plant; 0=no damage to plant), GLXMA (rate 500): 0 | damage to plant (100=total damage to plant; 0=no damage to plant), IPOHE (rate 15): 0 | damage to plant (100=total damage to plant; 0=no damage to plant), IPOHE (rate 30): 0 | damage to plant (100=total damage to plant; 0=no damage to plant), IPOHE (rate 60): 0 | damage to plant (100=total damage to plant; 0=no damage to plant), IPOHE (rate 130): 0 | damage to plant (100=total damage to plant; 0=no damage to plant), IPOHE (rate 250): 0 | damage to plant (100=total damage to plant; 0=no damage to plant), IPOHE (rate 500): 0 | KCHSC damage rating (Rates 15): 0 | KCHSC damage rating (Rates 30): 0 | KCHSC damage rating (Rates 60): 0 | KCHSC damage rating (Rates 130): 0 | KCHSC damage rating (Rates 250): 0 | KCHSC damage rating (Rates 500): 0 | LOLPE damage rating (Rates 15): 0 | LOLPE damage rating (Rates 30): 0 | LOLPE damage rating (Rates 60): 0 | LOLPE damage rating (Rates 130): 30 | LOLPE damage rating (Rates 250): 90 | LOLPE damage rating (Rates 500): 90 | POAAN damage rating (Rates 15): 0 | POAAN damage rating (Rates 30): 0 | POAAN damage rating (Rates 60): 0 | POAAN damage rating (Rates 130): 30 | POAAN damage rating (Rates 250): 60 | POAAN damage rating (Rates 500): 100 | damage to plant (100=total damage to plant; 0=no damage to plant), SORVU (rate 15): 0 | damage to plant (100=total damage to plant; 0=no damage to plant), SORVU (rate 30): 0 | damage to plant (100=total damage to plant; 0=no damage to plant), SORVU (rate 60): 0 | damage to plant (100=total damage to plant; 0=no damage to plant), SORVU (rate 130): 0 | damage to plant (100=total damage to plant; 0=no damage to plant), SORVU (rate 250): 0 | damage to plant (100=total damage to plant; 0=no damage to plant), SORVU (rate 500): 0 | STEME damage rating (Rates 15): 0 | STEME damage rating (Rates 30): 0 | STEME damage rating (Rates 60): 0 | STEME damage rating (Rates 130): 10 | STEME damage rating (Rates 250): 40 | STEME damage rating (Rates 500): 70 | VERPE damage rating (Rates 15): 0 | VERPE damage rating (Rates 30): 0 | VERPE damage rating (Rates 60): 0 | VERPE damage rating (Rates 130): 0 | VERPE damage rating (Rates 250): 10
